Data reported in US20260226068A1, “IMIDAZOTRIAZINE IL-17A MODULATORS AND USES THEREOF” (DICE ALPHA, INC., priority 2023, published 2026).

Columns and labels:
IL-17A/F = molecular target: T1, IL-17A/F (Homo sapiens, UniProt Q16552+Q96PD4); assay: IL-17A/F HEK-Blue cell assay (SEAP reporter); assay type: cell-based; details: HEK-Blue IL-17A reporter cells, IL17A/F 5 ng/mL, 20 hours, SEAP read at A630; read-out: HEK-Blue IL17AF (IC50 for IL-17A/F inhibition)
T1 construct: purchased R&D Systems
T1 sequence (Q16552 24-155): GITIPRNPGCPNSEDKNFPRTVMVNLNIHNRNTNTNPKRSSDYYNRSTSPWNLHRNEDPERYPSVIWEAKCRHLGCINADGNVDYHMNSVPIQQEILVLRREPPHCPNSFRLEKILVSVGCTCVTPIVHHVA
T1 sequence (Q96PD4 31-163): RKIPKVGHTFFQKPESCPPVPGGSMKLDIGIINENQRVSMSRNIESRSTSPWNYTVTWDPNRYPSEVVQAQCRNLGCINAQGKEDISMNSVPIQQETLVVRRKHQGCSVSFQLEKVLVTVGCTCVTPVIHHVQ

IL-17A/A = molecular target: T2, IL-17A/A (Homo sapiens, UniProt Q16552); assay: IL-17A/A HEK-Blue cell assay (SEAP reporter); assay type: cell-based; details: HEK-Blue IL-17A reporter cells, IL17A/A 5 ng/mL, 20 hours, SEAP read at A630; read-out: HEK-Blue IL17AA (IC50 for IL-17A/A inhibition)
T2 construct: purchased Genscript Z03228
T2 sequence (Q16552 24-155): T1 sequence (Q16552 24-155)

| SMILES | IC50 (IL-17A/F) [nM] | IC50 (IL-17A/A) [nM] |
| --- | --- | --- |
| CCc1nc2nc([C@@H](NC(=O)c3ccnn3C)C3CCC(F)(F)CC3)cn2nc1C[C@H]1C[C@@H](C(F)(F)F)CNC1=O [Compound 295, N—((S)-(4,4-difluorocyclohexyl)(3-ethyl-2-(((3R,5R)-2-oxo-5-(trifluoromethyl)piperidin-3-yl)methyl)imidazo[1,2-b][1,2,4]triazin-6-yl)methyl)-1-methyl-1H-pyrazole-5-carboxamide] | > 1000 | < 100 |
| CCn1nccc1C(=O)N[C@H](c1cn2nc(C[C@H]3C[C@@H](C(F)(F)F)CNC3=O)c(C3CCNCC3)nc2n1)C1CCC(F)(F)CC1 [Compound 299, N—((S)-(4,4-difluorocyclohexyl)(2-(((3R,5R)-2-oxo-5-(trifluoromethyl)piperidin-3-yl)methyl)-3-(piperidin-4-yl)imidazo[1,2-b][1,2,4]triazin-6-yl)methyl)-1-ethyl-1H-pyrazole-5-carboxamide] | > 1000 | 100 to 1000 |
| CCn1nccc1C(=O)N[C@H](c1cn2nc(C[C@H]3C[C@@H](C(F)(F)F)CNC3=O)c(C3CCN(C)CC3)nc2n1)C1CCC(F)(F)CC1 [Compound 300, N—((S)-(4,4-difluorocyclohexyl)(3-(1-methylpiperidin-4-yl)-2-(((3R,5R)-2-oxo-5-(trifluoromethyl)piperidin-3-yl)methyl)imidazo[1,2-b][1,2,4]triazin-6-yl)methyl)-1-ethyl-1H-pyrazole-5-carboxamide] | > 1000 | 100 to 1000 |
| CCn1nccc1C(=O)N[C@H](c1cn2nc(C[C@H]3C[C@@H](C(F)(F)F)CNC3=O)c(C3CNC3)nc2n1)C1CCC(F)(F)CC1 [Compound 301, N—((S)-(3-(azetidin-3-yl)-2-(((3R,5R)-2-oxo-5-(trifluoromethyl)piperidin-3-yl)methyl)imidazo[1,2-b][1,2,4]triazin-6-yl)(4,4-difluorocyclohexyl)methyl)-1-ethyl-1H-pyrazole-5-carboxamide] | > 1000 | < 100 |
| CCn1nccc1C(=O)N[C@H](c1cn2nc(C[C@H]3C[C@@H](C(F)(F)F)CNC3=O)c(C3CN(C)C3)nc2n1)C1CCC(F)(F)CC1 [Compound 302, N—((S)-(4,4-difluorocyclohexyl)(3-(1-methylazetidin-3-yl)-2-(((3R,5R)-2-oxo-5-(trifluoromethyl)piperidin-3-yl)methyl)imidazo[1,2-b][1,2,4]triazin-6-yl)methyl)-1-ethyl-1H-pyrazole-5-carboxamide] | > 1000 | < 100 |
| CCn1nccc1C(=O)N[C@H](c1cn2nc(C[C@H]3C[C@@H](C)CNC3=O)c(C3CCOCC3)nc2n1)C1CCC(F)(F)CC1 [Compound 303] | > 1000 | < 100 |
| CCn1nccc1C(=O)N[C@H](c1cn2nc(C[C@@H]3C[C@@H](C)CNC3=O)c(C3CCOCC3)nc2n1)C1CCC(F)(F)CC1 [Compound 304] | > 1000 | < 100 |
| C[C@@H]1CN(c2nc3nc([C@@H](NC(=O)c4ccnn4C)[C@@H]4CCCC(F)(F)C4)cn3nc2C[C@H]2C[C@H](C(F)(F)F)CNC2=O)CCO1 [Compound 309, N—((S)—((R)-3,3-difluorocyclohexyl)(3-((R)-2-methylmorpholino)-2-(((3R,5S)-2-oxo-5-(trifluoromethyl)piperidin-3-yl)methyl)imidazo[1,2-b][1,2,4]triazin-6-yl)methyl)-1-methyl-1H-pyrazole-5-carboxamide] | 100 to 1000 | < 100 |
| C[C@H]1CN(c2nc3nc([C@@H](NC(=O)c4ccnn4C)[C@@H]4CCCC(F)(F)C4)cn3nc2C[C@H]2C[C@H](C(F)(F)F)CNC2=O)CCO1 [Compound 310, N—((S)—((R)-3,3-difluorocyclohexyl)(3-((S)-2-methylmorpholino)-2-(((3R,5S)-2-oxo-5-(trifluoromethyl)piperidin-3-yl)methyl)imidazo[1,2-b][1,2,4]triazin-6-yl)methyl)-1-methyl-1H-pyrazole-5-carboxamide] | 100 to 1000 | < 100 |
| Cc1nonc1C(=O)N[C@H](c1cn2nc(C[C@H]3C[C@@H](C(F)(F)F)CNC3=O)c(N3CCN(C)CC3)nc2n1)C1CCC(F)(F)CC1 [Compound 311, N—((S)-(4,4-difluorocyclohexyl)(3-(4-methylpiperazin-1-yl)-2-(((3R,5R)-2-oxo-5-(trifluoromethyl)piperidin-3-yl)methyl)imidazo[1,2-b][1,2,4]triazin-6-yl)methyl)-4-methyl-1,2,5-oxadiazole-3-carboxamide] | > 1000 | < 100 |
| CCc1nonc1C(=O)N[C@H](c1cn2nc(C[C@H]3C[C@@H](C(F)(F)F)CNC3=O)c(N3CCN(C)CC3)nc2n1)C1CCC(F)(F)CC1 [Compound 312, N—((S)-(4,4-difluorocyclohexyl)(3-(4-methylpiperazin-1-yl)-2-(((3R,5R)-2-oxo-5-(trifluoromethyl)piperidin-3-yl)methyl)imidazo[1,2-b][1,2,4]triazin-6-yl)methyl)-4-ethyl-1,2,5-oxadiazole-3-carboxamide] | > 1000 | < 100 |
| Cc1nonc1C(=O)N[C@H](c1cn2nc(C[C@H]3C[C@@H](C(F)(F)F)CNC3=O)c(C3CCOCC3)nc2n1)C1CCCCC1 [Compound 313, N—((S)-cyclohexyl(2-(((3R,5R)-2-oxo-5-(trifluoromethyl)piperidin-3-yl)methyl)-3-(tetrahydro-2H-pyran-4-yl)imidazo[1,2-b][1,2,4]triazin-6-yl)methyl)-4-methyl-1,2,5-oxadiazole-3-carboxamide] | > 1000 | < 100 |
| Cc1nonc1C(=O)N[C@H](c1cn2nc(C[C@H]3C[C@@H](C(F)(F)F)CNC3=O)c(C3CCOCC3)nc2n1)C1CC2(C1)CC(F)(F)C2 [Compound 314, N—((S)-(6,6-difluorospiro[3.3]heptan-2-yl)(2-(((3R,5R)-2-oxo-5-(trifluoromethyl)piperidin-3-yl)methyl)-3-(tetrahydro-2H-pyran-4-yl)imidazo[1,2-b][1,2,4]triazin-6-yl)methyl)-4-methyl-1,2,5-oxadiazole-3-carboxamide] | > 1000 | < 100 |

More lines, now with the values ahead:

| IC50 (IL-17A/F) [nM] | IC50 (IL-17A/A) [nM] | SMILES |
| --- | --- | --- |
| 100 to 1000 | < 100 | CCn1nccc1C(=O)N[C@H](c1cn2nc(C[C@H]3C[C@@H](C(F)(F)F)CNC3=O)c(N3CCN(C)CC3)nc2n1)C1CCC(F)(F)CC1 [Compound 296, N—((S)-(4,4-difluorocyclohexyl)(3-(4-methylpiperazin-1-yl)-2-(((3R,5R)-2-oxo-5-(trifluoromethyl)piperidin-3-yl)methyl)imidazo[1,2-b][1,2,4]triazin-6-yl)methyl)-1-ethyl-1H-pyrazole-5-carboxamide] |
| 100 to 1000 | < 100 | CCn1nccc1C(=O)N[C@H](c1cn2nc(C[C@H]3CC(F)(F)CNC3=O)c(C3CCOCC3)nc2n1)[C@H]1CC[C@H](C)CC1 [Compound 297] |
| < 100 | < 100 | CCn1nccc1C(=O)N[C@H](c1cn2nc(C[C@H]3C[C@@H](C(F)(F)F)CNC3=O)c(N3CCN(C)[C@H](C)C3)nc2n1)C1CCC(F)(F)CC1 [Compound 298, N—((S)-(4,4-difluorocyclohexyl)(3-((R)-3,4-dimethylpiperazin-1-yl)-2-(((3R,5R)-2-oxo-5-(trifluoromethyl)piperidin-3-yl)methyl)imidazo[1,2-b][1,2,4]triazin-6-yl)methyl)-1-ethyl-1H-pyrazole-5-carboxamide] |
| < 100 | < 100 | CCn1nccc1C(=O)N[C@H](c1cn2nc(C[C@H]3C[C@H](C(F)(F)F)CNC3=O)c(N3CCO[C@H](C)C3)nc2n1)[C@@H]1CCCC(F)(F)C1 [Compound 305, N—((S)—((R)-3,3-difluorocyclohexyl)(3-((R)-2-methylmorpholino)-2-(((3R,5S)-2-oxo-5-(trifluoromethyl)piperidin-3-yl)methyl)imidazo[1,2-b][1,2,4]triazin-6-yl)methyl)-1-ethyl-1H-pyrazole-5-carboxamide] |
| 100 to 1000 | < 100 | CCn1nccc1C(=O)N[C@H](c1cn2nc(C[C@H]3C[C@H](C(F)(F)F)CNC3=O)c(N3CCO[C@@H](C)C3)nc2n1)[C@@H]1CCCC(F)(F)C1 [Compound 306, N—((S)—((R)-3,3-difluorocyclohexyl)(3-((S)-2-methylmorpholino)-2-(((3R,5S)-2-oxo-5-(trifluoromethyl)piperidin-3-yl)methyl)imidazo[1,2-b][1,2,4]triazin-6-yl)methyl)-1-ethyl-1H-pyrazole-5-carboxamide] |
| < 100 | < 100 | C[C@@H]1CN(c2nc3nc([C@@H](NC(=O)c4ccnn4C)[C@@H]4CCCC(F)(F)C4)cn3nc2C[C@H]2C[C@@H](C(F)(F)F)CNC2=O)CCO1 [Compound 307, N—((S)—((R)-3,3-difluorocyclohexyl)(3-((R)-2-methylmorpholino)-2-(((3R,5R)-2-oxo-5-(trifluoromethyl)piperidin-3-yl)methyl)imidazo[1,2-b][1,2,4]triazin-6-yl)methyl)-1-methyl-1H-pyrazole-5-carboxamide] |
| 100 to 1000 | < 100 | C[C@H]1CN(c2nc3nc([C@@H](NC(=O)c4ccnn4C)[C@@H]4CCCC(F)(F)C4)cn3nc2C[C@H]2C[C@@H](C(F)(F)F)CNC2=O)CCO1 [Compound 308, N—((S)—((R)-3,3-difluorocyclohexyl)(3-((S)-2-methylmorpholino)-2-(((3R,5R)-2-oxo-5-(trifluoromethyl)piperidin-3-yl)methyl)imidazo[1,2-b][1,2,4]triazin-6-yl)methyl)-1-methyl-1H-pyrazole-5-carboxamide] |
